PMC8370991, “Structural basis for the inhibition of HTLV-1 integration inferred from cryo-EM deltaretroviral intasome structures” (Nature Communications, 2021)
Read-outs that look alike come from different tables or passages of the source.

Experiments:
[1] = biological target: T1, recombinant HTLV-1 IN (Human T-cell leukemia virus 1, UniProt P03362); conditions: previously obtained values, cited from earlier work
T1 construct: made in house

[2] = biological target: T1, recombinant HTLV-1 IN; assay: In vitro integration strand transfer assay with HTLV-1 IN; assay type: biochemical; conditions: INSTI at 634 nM
Method in brief: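 Recombinant HTLV-1 IN (4 μg) with annealed 3′-processed LTR donor DNA (0.53 μM) preincubated 15 min RT with compound (screen at 634 nM) in PIPES pH 6.0, NaCl, MgCl2, ZnCl2, DTT; supercoiled plasmid target added, 1 h 37 °C. Concerted integration product quantified by agarose-gel densitometry; IC50 from dose–response fits, triplicate.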

[3] = test system: STLV-1 IN(A219E); assay: In vitro strand transfer assay with STLV-1 IN(A219E); assay type: biochemical; parameters: STLV-1 A219E strand transfer activity: unit not given here
Description: (§1) For STLV-1 IN, the reaction conditions were 25 mM BTP-HCl pH 6, 0.1 μM STLV-1 IN, 2 μM vDNA, 60 mM NaCl, 13.28 mM DTT, 10 mM MgCl2, 10 μM ZnCl2. STLV-1 IN and LEDGF/ΔIBD-B56γ were co-incubated at the above conditions at a 2:1 molar ratio, at 4 °C for 30 min. Donor vDNA was then added and the mixture was co-incubated at 37 °C for 10 min. For INSTI dose–response experiments, either the INSTI or DMSO control was then added, the sample was mixed and kept at 4 °C for an additional 15 min. Strand-transfer reactions were initiated by the addition of 300 ng of pGEM-9Zf(-) supercoiled plasmid DNA and stopped after 15 min of 37 °C incubation by adding 0.5% SDS and 25 mM EDTA, pH 8.0.
(§2) Proteins were degraded by incubation with 30 μg of proteinase K (Roche) at 37 °C for 1 h. DNA was precipitated at −20 °C overnight in the presence of ethanol supplemented with 20 μg of glycogen and then resuspended in 1.5× agarose loading dye. The DNA products were separated by electrophoresis through 1.5% agarose gel and stained with ethidium bromide and imaged using the BioRad GelDox XR + imager. The data were analysed and the IC50 calculated as previously described. In brief, the DNA band that corresponds to the concerted integration product was quantified by densitometry in ImageLab 4.1 (Bio-Rad). All experiments were done in triplicate. Quantified data points were fitted to dose–response curves in Prism 9. The cumulative standard deviation for each drug was calculated as an average of the upper limit and lower limit values: Lowerlimit=IC50/10^logSE(IC50) Upperlimit=IC50×10^logSE(IC50)

[4] = test system: STLV-1 IN (WT); assay: In vitro strand transfer assay with wild-type STLV-1 IN; assay type: biochemical; parameters: STLV-1 WT strand transfer activity: unit not given here
Description: as §1, §2

[5] = test system: HTLV-1; conditions: cited from earlier work
[6] = test system: HIV-1; conditions: cited from earlier work
[7] = log10 concentration -3.69897, column 1 of 3
[8] = log10 concentration -3.69897, column 2 of 3
[9] = log10 concentration -4.69897, column 1 of 3
[10] = log10 concentration -4.69897, column 2 of 3
[11] = log10 concentration -5.69897, column 1 of 3
[12] = log10 concentration -5.69897, column 2 of 3
[13] = log10 concentration -6.19791, column 1 of 3
[14] = log10 concentration -6.19791, column 2 of 3
[15] = log10 concentration -6.69897, column 1 of 3
[16] = log10 concentration -6.69897, column 2 of 3
[17] = log10 concentration -7.19791, column 1 of 3
[18] = log10 concentration -7.19791, column 2 of 3
[19] = log10 concentration -7.69897, column 1 of 3
[20] = log10 concentration -7.69897, column 2 of 3
[21] = log10 concentration -8.69897, column 1 of 3
[22] = log10 concentration -8.69897, column 2 of 3
[23] = log10 concentration -10.699, column 1 of 3
[24] = log10 concentration -10.699, column 2 of 3

T1 sequence (P03362 1168-1462): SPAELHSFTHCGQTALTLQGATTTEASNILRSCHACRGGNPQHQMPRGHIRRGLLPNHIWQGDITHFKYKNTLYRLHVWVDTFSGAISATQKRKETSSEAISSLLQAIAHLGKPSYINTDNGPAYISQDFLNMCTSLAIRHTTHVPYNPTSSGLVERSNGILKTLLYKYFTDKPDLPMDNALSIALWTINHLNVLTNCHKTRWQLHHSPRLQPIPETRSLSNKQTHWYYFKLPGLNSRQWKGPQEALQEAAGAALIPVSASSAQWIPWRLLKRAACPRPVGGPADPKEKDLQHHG

Compound: Cc1nnc(C(=O)NC(C)(C)c2nc(C(=O)NCc3ccc(F)cc3)c(O)c(=O)n2C)o1 [Raltegravir]
- IC50 ([1]; Replicate 1, read-out: HTLV-1 IN strand transfer IC50): 477 nM
- IC50 ([1]; Replicate 2, read-out: HTLV-1 IN strand transfer IC50): 425 nM
- IC50 ([1]; Replicate 3, read-out: HTLV-1 IN strand transfer IC50): 344 nM
- IC50 ([1]; integrase strand-transfer, read-out: HTLV-1 IC50 ± stdev): 410 ± 78.5 nM
- HTLV-1 IN strand transfer activity (No drug = 100) ([2]; Replicate 1): 34.4506%
- HTLV-1 IN strand transfer activity (No drug = 100) ([2]; Replicate 2): 36.5909%
- IC50 with STLV-1 IN A219E compared with wild-type STLV-1 IN ([3]; Supplementary Fig. 9): nearly identical
- STLV-1 A219E strand transfer activity ([3]; log10 concentration -3.69897): 4.375
- STLV-1 A219E strand transfer activity [3, 7]: 11.7647
- STLV-1 A219E strand transfer activity [3, 8]: 5.393
- STLV-1 A219E strand transfer activity ([3]; log10 concentration -4.69897): 6.875
- STLV-1 A219E strand transfer activity [3, 9]: 7.843
- STLV-1 A219E strand transfer activity [3, 10]: 4.103
- STLV-1 A219E strand transfer activity ([3]; log10 concentration -5.69897): 7.8125
- STLV-1 A219E strand transfer activity [3, 11]: 11.7647
- STLV-1 A219E strand transfer activity [3, 12]: 9.8476
- STLV-1 A219E strand transfer activity ([3]; log10 concentration -6.19791): 12.6562
- STLV-1 A219E strand transfer activity [3, 13]: 16.6667
- STLV-1 A219E strand transfer activity [3, 14]: 12.4267
- STLV-1 A219E strand transfer activity ([3]; log10 concentration -6.69897): 25.4688
- STLV-1 A219E strand transfer activity [3, 15]: 27.9412
- STLV-1 A219E strand transfer activity [3, 16]: 28.136
- STLV-1 A219E strand transfer activity ([3]; log10 concentration -7.19791): 49.375
- STLV-1 A219E strand transfer activity [3, 17]: 64.2157
- STLV-1 A219E strand transfer activity [3, 18]: 59.4373
- STLV-1 A219E strand transfer activity ([3]; log10 concentration -7.69897): 90.625
- STLV-1 A219E strand transfer activity [3, 19]: 108.333
- STLV-1 A219E strand transfer activity [3, 20]: 86.2837
- STLV-1 A219E strand transfer activity ([3]; log10 concentration -8.69897): 101.406
- STLV-1 A219E strand transfer activity [3, 21]: 107.843
- STLV-1 A219E strand transfer activity [3, 22]: 97.5381
- STLV-1 A219E strand transfer activity ([3]; log10 concentration -10.699): 97.9688
- STLV-1 A219E strand transfer activity [3, 23]: 103.922
- STLV-1 A219E strand transfer activity [3, 24]: 99.8828
- sensitivity of STLV-1 IN to the inhibitor ([4]; Supplementary Fig. 9): highly sensitive
- STLV-1 WT strand transfer activity ([4]; log10 concentration -3.69897): 15.0259
- STLV-1 WT strand transfer activity [4, 7]: 3.382
- STLV-1 WT strand transfer activity [4, 8]: 1.339
- STLV-1 WT strand transfer activity ([4]; log10 concentration -4.69897): 15.0259
- STLV-1 WT strand transfer activity [4, 9]: 1.932
- STLV-1 WT strand transfer activity [4, 10]: 3.125
- STLV-1 WT strand transfer activity ([4]; log10 concentration -5.69897): 25.9067
- STLV-1 WT strand transfer activity [4, 11]: 14.0097
- STLV-1 WT strand transfer activity [4, 12]: 13.3929
- STLV-1 WT strand transfer activity ([4]; log10 concentration -6.19791): 38.342
- STLV-1 WT strand transfer activity [4, 13]: 20.7729
- STLV-1 WT strand transfer activity [4, 14]: 15.625
- STLV-1 WT strand transfer activity ([4]; log10 concentration -6.69897): 40.9326
- STLV-1 WT strand transfer activity [4, 15]: 26.57
- STLV-1 WT strand transfer activity [4, 16]: 43.3036
- STLV-1 WT strand transfer activity ([4]; log10 concentration -7.19791): 63.2124
- STLV-1 WT strand transfer activity [4, 17]: 62.3188
- STLV-1 WT strand transfer activity [4, 18]: 68.75
- STLV-1 WT strand transfer activity ([4]; log10 concentration -7.69897): 94.3005
- STLV-1 WT strand transfer activity [4, 19]: 86.4734
- STLV-1 WT strand transfer activity [4, 20]: 94.1964
- STLV-1 WT strand transfer activity ([4]; log10 concentration -8.69897): 91.7098
- STLV-1 WT strand transfer activity [4, 21]: 100.483
- STLV-1 WT strand transfer activity [4, 22]: 99.1071
- STLV-1 WT strand transfer activity ([4]; log10 concentration -9.69897): 106.218
- STLV-1 WT strand transfer activity ([4]; log10 concentration -9.69897, column 1 of 3): 101.449
- STLV-1 WT strand transfer activity ([4]; log10 concentration -9.69897, column 2 of 3): 100.446
- STLV-1 WT strand transfer activity ([4]; log10 concentration -10.699): 100.518
- STLV-1 WT strand transfer activity [4, 23]: 102.415
- STLV-1 WT strand transfer activity [4, 24]: 99.5536
- EC50 ([5]; MT-2-Jurkat cell-to-cell infection, read-out: HTLV-1 EC50): 6.42 ± 4.24 nM
- EC50 ([5]; Replicate 1, previously reported values, read-out: HTLV-1 infection EC50): 7.85 nM
- EC50 ([5]; Replicate 2, previously reported values, read-out: HTLV-1 infection EC50): 8.18 nM
- EC50 ([5]; Replicate 3, previously reported values, read-out: HTLV-1 infection EC50): 4.08 nM
- EC50 ([6]; HIV-1 infection model, supplementary ref 18, read-out: HIV-1 EC50 ± stdev): 9.4 ± 1.4 nM
- EC50 ([6]; previously reported, read-out: EC50, infection by wild-type HIV-1): 4 ± 2 nM
